From PubChem BioAssay (NCI)
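Growth conditions: 96-well plates. Treatment: test compound, 48 hours, 5 concentrations. Analysis: linear interpolation between bracketing concentrations; unreached endpoints set to highest concentration. GI50 is the concentration that inhibits growth by half. TGI denotes the concentration required for complete inhibition of growth.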

Tests used:
Assay in all cases: growth of human tumour cells (NCI), 48 h
M19-MEL melanoma = system: M19-MEL melanoma
KM20L2 colon = system: KM20L2 colon
DLD-1 colon = system: DLD-1 colon
MDA-N = system: MDA-N
NCI/ADR-RES ovarian = system: NCI/ADR-RES ovarian
HOP-18 NSCLC = system: HOP-18 NSCLC
RXF-631 renal = system: RXF-631 renal
DMS 114 small cell lung = system: DMS 114 small cell lung

Structure (SMILES)	TGI (M19-MEL melanoma)	TGI (KM20L2 colon)	TGI (DLD-1 colon)	TGI (NCI/ADR-RES ovarian)	TGI (HOP-18 NSCLC)	TGI (DMS 114 small cell lung)	GI50 (NCI/ADR-RES ovarian)	also measured
Cc1cccc(NC(=O)CC#N)c1Cl	> 100 µM	> 100 µM	> 100 µM	–	–	–	–	–
COc1ccc(CC2C3=C(CCCC3)CCN2C)cc1 (configuration not stated)	–	–	–	> 100 µM	–	–	–	TGI (MDA-N): > 100 µM
O=[N+]([O-])c1ccc(-c2cn(-c3ccc(Cl)cc3)cn2)cc1	–	–	–	> 100 µM	–	–	–	TGI (MDA-N): > 100 µM
CC(Oc1ccc2cc(C(=O)c3ccccc3)c(=O)oc2c1)C(=O)O (configuration not stated)	> 100 µM	> 100 µM	–	–	> 100 µM	> 100 µM	–	TGI (RXF-631 renal): > 100 µM
O=C1c2cccnc2C(=O)c2c1c(C(=O)OCCN1CCOCC1)c1ccccn21	–	–	–	13 µM	–	–	< 0.01 µM	–
CCc1ccc(Nc2cc(C)nc3nc(C)nn23)cc1	–	–	–	> 100 µM	–	–	49.4 µM	–
CC(=O)c1ccc(NCN2C(=O)c3ccccc3C2=O)cc1	–	–	–	> 100 µM	–	–	–	TGI (MDA-N): > 100 µM
Cc1ccc(C2=C(c3ccccc3)C(O)(c3ccc(C)cc3)C(c3ccccc3)=C2c2ccc(C)cc2)cc1	> 100 µM	> 100 µM	> 100 µM	–	–	> 100 µM	–	–
COc1ccc(/C=C/C(=O)c2ccc(Nc3ccnc4cc(Cl)ccc34)cc2)cc1	–	–	–	> 100 µM	–	–	> 100 µM	–
C[C@@]1(N2C(=O)OC[C@@H]2c2ccccc2)C(=O)N([C@H](CC(=O)N2CCC(N3CCCCC3)CC2)C(=O)NCc2cccc(C(F)(F)F)c2)[C@@H]1/C=C/c1ccccc1	–	–	–	24 µM	–	–	10.2 µM	–
O=C([O-])c1ccccc1Nc1ccccc1[O-].[Ni+3].[OH3+].[OH3+].[OH3+]	> 100 µM	–	> 100 µM	–	–	> 100 µM	–	GI50 (M19-MEL melanoma): > 100 µM; GI50 (DLD-1 colon): > 100 µM; GI50 (DMS 114 small cell lung): > 100 µM
CCN(CC)CCOc1ccc(C(=C2CCCCC2)c2ccc(OCCN(CC)CC)cc2)cc1	3.08 µM	2.55 µM	4.52 µM	–	8.01 µM	–	–	TGI (RXF-631 renal): 2.82 µM
COc1cc(C2C(C#N)=C(N)Oc3cc(O)ccc32)cc(OC)c1OC (configuration not stated)	–	–	–	> 100 µM	–	–	1.72 µM	–
CC(=O)OCC1OC(Sc2ccccn2)C=CC1OC(C)=O (configuration not stated)	> 100 µM	> 100 µM	> 100 µM	–	> 100 µM	> 100 µM	–	–
c1ccc(C2N3CCCCC3[C@@H]3c4[nH]c5ccccc5c4CCN23)cc1 (some centres not stated)	> 100 µM	> 100 µM	> 100 µM	–	> 100 µM	> 100 µM	–	–
O=c1[nH]c(/C=C(\O)c2ccncc2)nc2ccccc12	> 100 µM	–	> 100 µM	–	–	> 100 µM	–	–
C/C(=N\NC(=O)c1ccncc1)c1ccc(O)cc1O	–	–	–	> 100 µM	–	–	3.42 µM	–
COc1ccc(Nc2ncccc2C(=O)NCc2cn(Cc3cccc(Oc4ccccc4)c3)nn2)cc1	–	–	–	6.69 µM	–	–	2.12 µM	–

Structure (SMILES)	TGI (M19-MEL melanoma)	TGI (KM20L2 colon)	TGI (DLD-1 colon)	TGI (NCI/ADR-RES ovarian)	TGI (HOP-18 NSCLC)	TGI (DMS 114 small cell lung)	GI50 (NCI/ADR-RES ovarian)	also measured
CCC(/C(=N\Nc1c(Cl)cc(Cl)cc1Cl)c1ccccc1)n1ccnc1C (configuration not stated)	29.7 µM	17.5 µM	17.2 µM	–	30.1 µM	22.3 µM	–	TGI (RXF-631 renal): 25 µM
CN(C)CCC1(C2=CCCC2)CC/C(=C\c2ccccc2)C1=O (configuration not stated)	28.5 µM	26 µM	37.5 µM	–	29.2 µM	33.2 µM	–	–
Oc1cc2c(cc1O)-c1[nH]ncc1CC2	> 100 µM	> 100 µM	> 100 µM	–	61.8 µM	75.2 µM	–	–
O=c1cccc(C#CC#C/C=C/CO)o1	–	–	–	–	–	–	2.52 µM	–
C[C@]12CC[C@H]3[C@@H](C[C@@H]4N=C(c5ccc(O)cc5)S[C@@]45C[C@H](O)CC[C@]35C)[C@@H]1CC[C@@H]2O	–	–	–	> 100 µM	–	–	6.77 µM	–
Nc1nc2c(c3cnccc13)C(c1cccc(Cl)c1)Cc1cnccc1-2 (configuration not stated)	–	–	–	0.663 µM	–	–	0.237 µM	–
Cc1nc2cc(N)c(Cl)cc2[nH]1	–	–	–	> 100 µM	–	–	–	TGI (MDA-N): > 100 µM
COC(=O)C(Cc1nc2ccccc2[nH]c1=O)C(=O)C(=O)Nc1ccc(OC)cc1[N+](=O)[O-] (configuration not stated)	> 100 µM	> 100 µM	–	–	–	–	–	–
O=C(c1ccc2c3c(ccc(C(=O)C(F)(F)F)c13)CC2)C(F)(F)F	> 100 µM	> 100 µM	> 100 µM	–	> 100 µM	> 100 µM	–	–
CC([O-])C(=O)[O-].NCC1CCC1CN.[Pt+4] (configuration not stated)	–	–	–	> 10 µM	–	–	> 10 µM	GI50 (MDA-N): > 10 µM; TGI (MDA-N): > 10 µM
O=C1C(N2C(=O)c3ccccc3C2=O)CN1C(COCc1ccccc1)c1ccc(OCc2ccccc2)cc1 (configuration not stated)	> 100 µM	> 100 µM	> 100 µM	–	–	> 100 µM	–	–
COc1ccc(C(=O)O)c(Cc2ccc3ccccc3c2)c1	> 100 µM	> 100 µM	> 100 µM	–	> 100 µM	> 100 µM	–	–
CC[C@]12CCCN3CC[C@]4(C(=C(C(=O)OC)C1)Nc1ccccc14)[C@@H]32	–	–	–	33.4 µM	–	–	14.3 µM	–
O=C1OC2C(O)C(=O)OC2C1O (configuration not stated)	–	–	–	> 100 µM	–	–	–	TGI (MDA-N): > 100 µM
CSc1ccc2c(cc1=O)[C@@H](NC(=O)c1ccc(F)cc1)CCc1cc(O)c(O)c(O)c1-2	> 100 µM	> 100 µM	> 100 µM	–	> 100 µM	> 100 µM	–	TGI (RXF-631 renal): > 100 µM
CN1CCCCC1CCN1c2ccccc2Sc2ccc(S(C)=O)cc21 (configuration not stated)	–	–	–	> 100 µM	–	–	–	TGI (MDA-N): > 100 µM
CCCCCCCCCC(CCCC(O)CC(=O)O)OC1OC(COC2OC(C)C(O)C(O)C2O)C(O)C(O)C1OC1OC(CO)C(O)C(O)C1OC1OC(C)C(O)C(O)C1O (configuration not stated)	–	–	–	> 40 µM	–	–	> 40 µM	–
CC(O[Si](C)(C)C)C1C=CC(C)n2c(=O)n(-c3ccccc3)c(=O)n21 (configuration not stated)	> 100 µM	–	> 100 µM	–	> 100 µM	> 100 µM	–	–
